How the values were obtained:
Assay type in all cases: in vivo, mouse
[1] = tested on: type 2 diabetes mice (C57BL/KsJ-db/db Jcl); experiment: serum insulin after a single oral dose and glucose loading (Example 2); details: for Conc. of insulin: glucose 1 g/kg i.p. after 5 hours, serum 30 minutes later
Protocol: Second step; Determining optimum L-2-oxothiazolidine-4-carboxylic acid concentration which is appropriate for enhancing insulin secretion and lowering blood glucose levels in a type 2 diabetes mouse, by administering 0-400 mg/kg of L-2-oxothiazolidine-4-carboxylic acid orally,
The present example is to show an appropriate concentration of L-2-oxothiazolidine-4-carboxylic acid for the purpose of improving the ability of insulin secretion and lowering blood glucose levels, by varying the concentrations of L-2-oxothiazolidine-4-carboxylic acid in a single oral dose to type 2 diabetes mice.
The present inventors ascertained the effect of various concentrations of L-2-oxothiazolidine-4-carboxylic acid on lowering blood glucose level and insulin secretion. in which experiments enough sterilized-feed and water was given to 6 week old C57BL mice(Samtako, purchased from Clea, Japan) in the light condition of 12L: 12D for a week, bred the mice in the incubator of A.B.J Co.(Building 1 Chonbuk National University Medical School, Chonju, Korea) for a week, and no feed but water was given to the mice for 13 hours before insulin and glucose levels were measured.
0.2 ml of PBS (pH 7.4) was orally given to the control group(5 mice) using feeding needle, and 1.5-400 mg/kg of L-2-oxothiazolidine-4-carboxylic acid, dissolved in 0.2 ml of PBS and its pH was adjusted to 7.2 with 3 N NaOH(Junsei, Japan), was orally administered to experimental group(5 mice). After 5 hours of the drug administration, glucose(Sigma, USA) was injected intraperitoneally at the concentration of 1 g/kg, and incubated the mice for 30 minutes. Immediately after the mice were anesthetized with ether, the thoraces of the mice was incised to take blood, serum was isolated, and the insulin concentration of the mice-serum was measured by radioimmunoassay using rat insulin assay kit(Amersham Pharmacia Bio Co., USA).

[2] = tested on: type 2 diabetes mice (C57BL/KsJ-db/db Jcl); experiment: serum insulin levels after glucose intake, single oral administration (Example 3); details: for concentration of insulin / increase of insulin concentration vs control group: 30 min after glucose intake
Protocol: (§1) Third step; Determining the abilities of lowering blood glucose level and increasing insulin secretion ability following glucose loading, by administering a single dose of 8-80 mg/kg of L-2-oxothiazolidine-4-carboxylic acid to a type 2 diabetes mouse, Fourth step; Examining the effect of long term administration of L-2-oxothiazolidine-4-carboxylic acid on lowering blood glucose levels,
(§2) Under the same breeding condition as in EXAMPLE 2, no feed but water was given to 7 week old type 2 diabetes mice (C57BL/KsJ-db/db Jel, Clea, Japan) for 13 hours. 0.2 ml of PBS was orally given to the control group(5 mice) using feeding needle, and 8-80 mg/kg of L-2-oxothiazolidine-4-carboxylic acid dissolved in 0.2 ml of PBS was orally administered to the experimental group(5 mice). After 5 hours of drug administration, 1 g/kg of glucose (Sigma, USA) was intraperitoneally injected and the mice were maintained for 30 to 120 minutes. The blood glucose levels of type 2 diabetes mice at various time points were measured by the glucose oxidase method using a glucose analyzer(One-touch Basic, Lifescan, USA), and serum insulin levels were determined using a radioimmunoassay, as described in EXAMPLE 2.

[3] = tested on: type 2 diabetes mice (C57BL/KsJ-db/db Jcl); experiment: blood insulin concentration after oral administration for four weeks (Example 5); details: 80 mg/kg per day for four weeks
Protocol: Fifth step Determining the ability of insulin secretion after oral administration of L-2-oxothiazolidine-4-carboxylic acid for 4 weeks to a 7 week old type 2 diabetes mouse, and
Seven week old type 2 diabetes mice were maintained as in EXAMPLE 2. 0.2 ml of PBS (pH 7.4) was given to a control group(4 mice) twice a day for four weeks, and 80 mg/kg of L-2-oxothiazolidine-4-carboxylic acid dissolved in 0.2 ml of PBS of which pH was adjusted to 7.4 with 3 N NaOH(Junsei, Japan), was orally administered to an experimental group(4 mice). Five hours after the drug was finally administered, 1 g/kg of glucose was intraperitoneally injected. Tails were cut, blood samples were taken from the tails at 60 min. time intervals until 180 min., the samples were left at room temperature for three hours, sera were collected, and the insulin concentration was measured by radioimmunoassay.

[4] = tested on: type 2 diabetes mice (C57BL/KsJ-db/db Jcl); experiment: blood glucose levels after glucose intake, single oral administration (Example 3); details: for blood glucose level / decrease of blood glucose level vs control group: 30 min after glucose intake
Protocol: as §1, §2

For `O=C1NC(C(=O)O)CS1` [OTC, L-2-oxothiazolidine-4-carboxylic acid], the “insulin secretion ability compared to the control group” value ([1]; 3-20 mg/kg single oral dose, p<0.05) was “improvement of insulin secretion ability”, the “insulin secretion ability compared to the control group” value ([1]; 40-160 mg/kg single oral dose, p<0.001) was “more than 2 times” and the Conc. of insulin ([1]; OTC 1.5 mg/kg single oral dose) was 878 pmol/L. The Conc. of insulin ([1]; OTC 3 mg/kg single oral dose) was 908 pmol/L, the Conc. of insulin ([1]; OTC 10 mg/kg single oral dose) was 1103 pmol/L and the Conc. of insulin ([1]; OTC 20 mg/kg single oral dose) was 1,205 pmol/l. The Conc. of insulin ([1]; OTC 40 mg/kg single oral dose) was 1,535 pmol/l, the Conc. of insulin ([1]; OTC 80 mg/kg single oral dose) was 1,750 pmol/l and the Conc. of insulin ([1]; OTC 160 mg/kg single oral dose) was 1684 pmol/L. The Conc. of insulin ([1]; OTC 400 mg/kg single oral dose) was 1350 pmol/L, the “insulin secretion ability compared to the control group” value ([1]; over 400 mg/kg single oral dose, p<0.005) was “salient improvement of insulin secretion ability” and the concentration of insulin ([2]; 40 mg/kg single oral dose) was 1,650±103 pmol/1. The “increase of insulin concentration vs control group” value ([2]; 40 mg/kg single oral dose) was 26.5%, the concentration of insulin ([2]; 80 mg/kg single oral dose) was 1,760±94 pmol/l and the “increase of insulin concentration vs control group” value ([2]; 80 mg/kg single oral dose) was 35.4%. The “duration of the improvement of insulin secretion after the intake of glucose” value ([2]; 40-80 mg/kg single oral dose) was “about 120 min”, the “duration of the effect on insulin concentration” value [3] was “about 120 min” and the insulin concentration ([3]; 120 min after glucose intake) was 1285.04 ± 135.60 pmol/L. For the same compound, the “increase of insulin concentration compared to the control group” value ([3]; after 120 min) was 4.93 times, the insulin concentration ([3]; fasted state) was 450 ± 43.50 pmol/L and the blood glucose level ([4]; 40 mg/kg single oral dose) was 295 ± 8.5 mg/dL. For the same compound, the “decrease of blood glucose level vs control group” value ([4]; 40 mg/kg single oral dose) was 34.27%, the blood glucose level ([4]; 80 mg/kg single oral dose) was 269 ± 6.85 mg/dL and the “decrease of blood glucose level vs control group” value ([4]; 80 mg/kg single oral dose) was 40.01%. For the same compound, the “duration of the lowering effect of blood glucose levels after the intake of glucose” value ([4]; 40-80 mg/kg single oral dose) was “about 60 min”.
